Data: patent US10196357B2, “Biaryl compositions and methods for modulating a kinase cascade” (Athenex, Inc., priority 2007, dated 2019)
Where “and” joins values, the source holds several entries; their conditions need not be identical. Identical values can stand only once.

Tests used:
[1] = brain exposure after oral administration; type: in vivo, male CD-1 mice; settings: for AUClast: Brain; for KX2-361 Brain Concentrations, Group A / KX2-361 Brain Concentrations, Group B / KX2-361 Brain Concentrations, Group C: Male CD-1 mice, single PO dose 10 mg/kg (Group 3)
Method: Plasma concentrations were measured in mice after oral administration. All doses were formulated in purified water. Four groups of male CD-1 mice were dosed after an overnight fast and fed 4 hours post-dose. Dosing was as follows:
Protein was precipitated with 0.25 mL acetonitrile for plasma, 0.25 mL for brain. After centrifugation, supernatant was directly injected into an LC/MS system. The limit of quantitation was 1 ng/mL using a 50 μL aliquot for plasma and a 50 μL, aliquot for brain. The standard curve was 1 to 1,000 ng/mL for both plasma and brain. HPLC conditions were as follows:
HPLC System: Shimadzu SCL-10 System
• Analytical Column: Aquasil C18 5 μm 100×2 mm column. • Column Temperature: Ambient temperature • Autosampler Temperature: Ambient temperature • Mobile Phase A) 10 mM Ammonium formate in water (pH 4). • B) Acetonitrile. • Flow Rate: 0.6 mL/min • Injection Volume: 2 μL • Gradient:
• Mass Spectrometry Conditions were as follows: • Instrument: ABI Sciex API 4000 • Mode: ESI+ • Experiment: MRM (multiple reaction monitoring) • Transitions: KX2-391: m/z 432.4→114.2 (Rt=3.11 minute) • KX2-361: m/z 406.1→253.2 (Rt=3.33 minute)

GL261 glioma cells = assay: intracranial GL261 glioma survival study; type: in vivo, C57BL/6 mice; settings: for Median survival / survival Range: C57BL/6 mice, intracranial GL261
Method: A brain tumor mouse xenograft study was conducted comparing KX2-361 and KX2-391 (KXO1) to Temodar®. The studies were conducted in C57BL/6 mice. GL261 glioma cells (1×10^5 in 5 μl DMEM) were implanted intracranial coordinates: bregma, lateral 2.0 mm, anterior 1.2 mm, 3.0 mm depth dura. Treatment was initiated 3 days post implantation. The groups were as follows (all doses in 100 μl H2O):
The median survival range and the log-rank (Mantel-Cox) statistical test results comparing the survival distributions of the samples.

SKOV-3 (Ovarian) = assay: growth inhibition (BrdU), SKOV-3; type: cell-based, Human; settings: SKOV-3 (Ovarian) cells
Text: (§1) Growth Inhibition. […] T1 values≤T0 values were designated as T, cytotoxicity.

Shc Y239/240 = assay: intracellular phosphorylation, Shc Y239/240; type: cell-based; settings: whole cells
Method: HT29 (colon cancer) and c-Src527F/NIH-3T3 (Src transformed) cell lines were treated with KX2-391 or with AstraZeneca's ATP competitive Src inhibitor AZ28. AZ28 serves as a positive comparator to show what a validated Src inhibitor should do in these assays. After treatment with compound, cells were lysed, subjected to PAGE and probed with a battery of antibodies. […] In addition, off-target protein phosphorylation was also investigated. Further, induction of apoptosis was evaluated via Caspase 3 cleavage. Multiple doses of each compound were tested because the trends in response to increasing drug concentration are the most reliable indicator of activity.
The same range of multiples of the GI50 for AZ28 in these two cell lines was run as a comparison.
KX2-391 and AZ28 inhibited Src transphosphorylation.

Ba/F3 (IL-3 induced) = assay: MTT growth inhibition, Ba/F3 + IL-3; type: cell-based; settings: 96 hrs, read-out: GI50
[2] = test system: K562R (Gleevec resistant CML); assay: growth inhibition, K562R; type: cell-based, Human
MDA231 (Breast) = assay: growth inhibition (BrdU), MDA231; type: cell-based, Human; settings: MDA231 (Breast) cells
Text: as §1

K562 (CML) = assay: growth inhibition (BrdU), K562; type: cell-based, Human; settings: K562 (CML)
Text: as §1

GL261 = assay: brain tumor cell growth inhibition, GL261; type: cell-based; settings: GL261, mouse glioblastoma; read-out: IC50 (title: GI50)
[3] = test system: lung cancer cell line A549; assay: tumor growth inhibition, A549; type: cell-based, Human; settings: A549 (Lung) cells
Text: as §1

H460 = assay: MTT growth inhibition, Dasatinib-resistant H460; settings: H460, 8.0×10^3 cells/well, […] FBS, 78 Hr
Method: Cell proliferation/growth inhibition was assessed using MTT colorimetric assay.
On Day 3, 10 μL MTT (5 mg/mL) was added to each well. Cells were then incubated in the presence of MTT for 4 hours at 37° C., appropriate CO2 conditions. After this incubation period, 90 μL 10% SDS(+HCl) was added to each well to lyse cells and solubilize formazan. Cells were then incubated overnight at 37° C., appropriate CO2 conditions.
The OD570 was measured using microplate reader. Growth inhibition curves and EC50/IC50 was determined using GraphPad Prism 4 statistical software.

ACHN = assay: renal tumor cell growth inhibition, ACHN; type: cell-based, Human; settings: renal cell adenocarcinoma
Method: These GI50s were determined using standard tumor growth inhibition assays, similar to those described in detail in this Example 7.

Question: For O=C(Cc1ccc(-c2ccc(N3CCOCC3)cc2)cn1)NCc1cccc(F)c1 [KX2-361], which AUClast ([1]; single oral dose 10 mg/kg) is on record?
Answer: 656 ng·h/g

Question: And the AUClast ([1]; single oral dose 50 mg/kg)?
Answer: 3338 ng·h/g

Question: And the “KX2-361 Brain Concentrations, Group A” value ([1]; 0 hr)?
Answer: BLQ (BLQ: Below Limit of Quantitation (1 ng/mL))

Question: What about the “KX2-361 Brain Concentrations, Group B” value ([1]; 0 hr) of the same compound?
Answer: BLQ (BLQ: Below Limit of Quantitation (1 ng/mL))

Question: And the “KX2-361 Brain Concentrations, Group C” value ([1]; 0 hr)?
Answer: BLQ (BLQ: Below Limit of Quantitation (1 ng/mL))

Question: What about the “KX2-361 Brain Concentrations, Group A” value ([1]; 0.5 hr) of the same compound?
Answer: 43.98 ng/g

Question: What about the “KX2-361 Brain Concentrations, Group B” value ([1]; 0.5 hr) of the same compound?
Answer: 138.55 ng/g

Question: What about the “KX2-361 Brain Concentrations, Group C” value ([1]; 0.5 hr) of the same compound?
Answer: 116.84 ng/g

Question: And the “KX2-361 Brain Concentrations, Group B” value ([1]; 1 hr)?
Answer: 334.71 ng/g

Question: And the “KX2-361 Brain Concentrations, Group C” value ([1]; 1 hr)?
Answer: 273.32 ng/g

Question: And the “KX2-361 Brain Concentrations, Group A” value ([1]; 2 hr)?
Answer: 109.78 ng/g

Question: And the “KX2-361 Brain Concentrations, Group B” value ([1]; 2 hr)?
Answer: 78.76 ng/g

Question: And the “KX2-361 Brain Concentrations, Group C” value ([1]; 2 hr)?
Answer: 336.07 ng/g

Question: What about the “KX2-361 Brain Concentrations, Group A” value ([1]; 5 hr) of the same compound?
Answer: BLQ (BLQ: Below Limit of Quantitation (1 ng/mL))

Question: And the “KX2-361 Brain Concentrations, Group C” value ([1]; 5 hr)?
Answer: 47.85 ng/g

Question: What about the “AUClast Brain/AUClast Plasma Ratio” value ([1]; single oral dose 10 mg/kg) of the same compound?
Answer: 0.76

Question: What about the Median survival (GL261 glioma cells; 15 mg/kg bid oral) of the same compound?
Answer: 30.5

Question: What about the “survival Range” value (GL261 glioma cells; 15 mg/kg bid oral) of the same compound?
Answer: 25-34

Question: And the Median survival (GL261 glioma cells; 30 mg/kg bid oral)?
Answer: 29

Question: And the “survival Range” value (GL261 glioma cells; 30 mg/kg bid oral)?
Answer: 23-32

Question: What about the “survival of mice bearing intracranial GL261 gliomas” value (GL261 glioma cells; orally at 15 mg/kg/dose bid 7 hours apart) of the same compound?
Answer: best results

Question: For O=C(Cc1ccc(-c2ccc(OCCN3CCOCC3)cc2)cn1)NCc1ccccc1 [KXO1], which GI50 (SKOV-3 (Ovarian)) is on record?
Answer: 9.8 nM

Question: What about the “phosphorylation of Shc Y239/240 (Src transphosphorylation)” value (Shc Y239/240) of the same compound?
Answer: potent inhibitor

Question: And the GI50 (Ba/F3 (IL-3 induced))?
Answer: 3.5 nM

Question: And the GI50 [2]?
Answer: 0.64 nM

Question: And the GI50 (MDA231 (Breast))?
Answer: 20 nM

Question: What about the GI50 (K562 (CML)) of the same compound?
Answer: 13 nM

Question: What about the IC50 (GL261) of the same compound?
Answer: 13.7 nM

Question: And the GI50 [3]?
Answer: 9.4 nM and 13 nM

Question: What about the IC50 (H460) of the same compound?
Answer: 51 nM

Question: What about the IC80 (H460) of the same compound?
Answer: 105 nM

Question: And the IC90 (H460)?
Answer: 162 nM

Question: And the GI50 (ACHN)?
Answer: 33.2 nM
